Reference: patent US20230391868A1, “COMPOSITIONS FOR AND METHODS OF TREATING CANCER” (The George Washington University, priority 2022, published 2023)

Assays:
[1] = tested on: A31A7 macrophages and BMDMs; assay: Macrophage M1/M2 marker gene expression by qRT-PCR; type: cell-based, mouse; conditions: A31A7; qRT-PCR (FIG. 7D-FIG. 7E)
Method: Bone marrow-derived macrophages were isolated from the femurs and tibias of wild-type C57/Bl6, HDAC6 knockout (C57BL/6J-Hdac6em2Lutzy/J, 029318, Jackson Laboratory), or UBC-GFP (C57BL/6-Tg(UBC-GFP)30Scha/J, 004353, Jackson Laboratory). Isolated bone marrow cells were cultured in RPMI 1640 complete medium with 10% FBS, 1% NEAA, and 1% penicillin-streptomycin in 5% CO2 at 37° C. Medium was supplemented with murine recombinant M-CSF (20 ng/mL, 576404, Biolegend) to differentiate monocytes into macrophages. Three days after bone marrow isolation, undifferentiated and floating cells were washed with PBS and replaced with fresh RPMI media. […]
(§1) Macrophages were polarized to M1-like phenotype using 50 ng/mL of interferon gamma (IFNγ, 575306, Biolegend) and 100 ng/mL of bacterial lipopolysaccharide (LPS, L2880, Sigma Aldrich, St. Louis, MO) for 24 hours. To polarize macrophages towards the M2-like phenotype, macrophages were stimulated with 20 ng/mL of IL-4 (214-14, PeproTech) and 20 ng/mL of IL-13 (575904, Biolegend). THP1 monocytes were treated with 5 ng/mL of phorbol 12-myristate 13-acetate (PMA) to induce differentiation into macrophages. Once converted to macrophages, media was replaced to remove PMA prior to treatment and/or polarization. Polarization towards M1 and M2 phenotypes was performed with respective recombinant human cytokines from PeproTech: 50 ng/mL of IFNγ (300-02), 20 ng/mL IL-4 (200-04), and 20 ng/mL IL-13 (200-13). 100 ng/mL LPS was also used to polarize toward the M1 phenotype. 3. In vivo Studies.
(§2) qRT-PCR: Total RNA was extracted from cells using the Trizol reagent according to manufacturer's instructions (ThermoFisher Scientific, 15596018). Samples were then processed immediately or stored at −80° C. RNA was quantified using a NanoDrop One Spectrophotometer (ThermoFisher Scientific). The 260/280 ratios were routinely over 1.8. Sample cDNA was produced using the iScript cDNA synthesis kit (Bio-Rad, 1708891). Target mRNA was quantified using MyIQ single-color real-time PCR detection system from Bio-Rad (Bio-Rad, Hercules, CA) and iQ SYBR green Supermix (Bio-Rad, 1708882). The following primers were synthesized by Invitrogen (Waltham, MA) with sequences designed by Origene (Rockville, MD): mouse R-actin (MP200232), mouse Nos2 (MP208933), mouse MRC1 (MP207800), human R-actin (HP204660), human IL-1β (HP200544), human MRC1 (HP206121), human NOS2 (HP200591), human CD209 (HP214086), mouse SIRPα (MP215450), mouse LRP1 (MP207604), human LRP1 (HP206040), mouse MFGE8 (MP208190), human MFGE8 (HP225757), mouse CD36 (MP201923), human CD36 (HP200058), and mouse CD47 (MP201932). Primers for mouse ARG-1 (PPM31770C) and human SIRPα (QT01031051) were purchased from Qiagen (Hilden, Germany). Human CD47 primer sequences were obtained from Sudo T, et al and are 5′-[…]-3′ (sense) (SEQ ID NO:01) and 5′-[…]-3′ (antisense) (SEQ ID NO:02) (Sudo T, et al. (2017) Oncol. Lett. 14:801-809). Human CD86 primer sequences are 5′-[…]-3′ (sense) (SEQ ID NO:03) and 5′-[…]-3′ (antisense) (SEQ ID NO:04). Mouse CD80 sequences are 5′-[…]-3′ (sense) (SEQ ID NO:05) and 5′-[…]-3′ (antisense) (SEQ ID NO:06). Cycling conditions were set as per manufacturer's instructions. Single product amplification was confirmed by melting curve analysis. Quantification is expressed in arbitrary units and target mRNA levels were normalized to R-actin expression.

THP1-derived macrophages = assay: M1/M2 marker gene expression in THP1-derived macrophages by qRT-PCR; type: cell-based, human; conditions: gene expression (FIG. 7H)
Method: as §1
as §2, with “expression. […]” for “expression.”

[2] = tested on: human THP1-derived macrophages; assay: Pro-phagocytic signal gene expression in THP1-derived macrophages; type: cell-based; conditions: human THP1-derived macrophages (FIG. 8E); corroboration of NextA increase
Method: as §1
(§3) qRT-PCR: Total RNA was extracted from cells using the Trizol reagent according to manufacturer's instructions (ThermoFisher Scientific, 15596018). Samples were then processed immediately or stored at −80° C. RNA was quantified using a NanoDrop One Spectrophotometer (ThermoFisher Scientific). The 260/280 ratios were routinely over 1.8. Sample cDNA was produced using the iScript cDNA synthesis kit (Bio-Rad, 1708891). Target mRNA was quantified using MyIQ single-color real-time PCR detection system from Bio-Rad (Bio-Rad, Hercules, CA) and iQ SYBR green Supermix (Bio-Rad, 1708882). The following primers were synthesized by Invitrogen (Waltham, MA) with sequences designed by Origene (Rockville, MD): mouse R-actin (MP200232), mouse Nos2 (MP208933), mouse MRC1 (MP207800), human R-actin (HP204660), human IL-1β (HP200544), human MRC1 (HP206121), human NOS2 (HP200591), human CD209 (HP214086), mouse SIRPα (MP215450), mouse LRP1 (MP207604), human LRP1 (HP206040), mouse MFGE8 (MP208190), human MFGE8 (HP225757), mouse CD36 (MP201923), human CD36 (HP200058), and mouse CD47 (MP201932). […] Quantification is expressed in arbitrary units and target mRNA levels were normalized to R-actin expression.

SM1 melanoma cells = assay: Cd47 mRNA upon IFNγ stimulation in SM1 cells; type: cell-based, mouse
Method: as §3, with “(MP201932). Primers for mouse ARG-1 (PPM31770C) and human SIRPα (QT01031051) were purchased from Qiagen (Hilden, Germany).” for “(MP201932).”
(§4) Although the mechanism by which IFNγ drives CD47 upregulation is unclear, IFNγ expression correlates to CD47 expression in skin cutaneous melanoma (Ye Z H, et al. (2021) Transl. Oncol. 14:101162). The kinetics of Cd47 mRNA in SM1 and B16 cells upon IFNγ stimulation (100 ng/mL) were evaluated and these mouse melanoma models were determined to have different kinetics (FIG. 9A-FIG. 9B). It was determined that 12 hours was a time point for both models to sustain the IFNγ-mediated upregulation. In FIG. 9B, the role of HDAC6 inhibitors NextA and Tubastatin A in abrogating Cd47 upregulation upon stimulation with IFNγ for 12 hours was evaluated.

B16 melanoma cells = assay: Cd47 mRNA upon IFNγ stimulation in B16 cells; type: cell-based, mouse
Method: as §3, with “(MP201932). Primers for mouse ARG-1 (PPM31770C) and human SIRPα (QT01031051) were purchased from Qiagen (Hilden, Germany).” for “(MP201932).”
as §4

[3] = Laengle J, et al. (2020); cited from earlier work
[4] = molecular target: mouse CD47 on the surface of SM1 melanoma cells (mouse) (UniProt Q61735); assay: flow cytometry titration on SM1 cells; free CD47 read with PE anti-mouse CD47 (miap301), bound antibody read with PE anti-rat IgG2a
Sequence of UniProt Q61735 (Q61735 19-303): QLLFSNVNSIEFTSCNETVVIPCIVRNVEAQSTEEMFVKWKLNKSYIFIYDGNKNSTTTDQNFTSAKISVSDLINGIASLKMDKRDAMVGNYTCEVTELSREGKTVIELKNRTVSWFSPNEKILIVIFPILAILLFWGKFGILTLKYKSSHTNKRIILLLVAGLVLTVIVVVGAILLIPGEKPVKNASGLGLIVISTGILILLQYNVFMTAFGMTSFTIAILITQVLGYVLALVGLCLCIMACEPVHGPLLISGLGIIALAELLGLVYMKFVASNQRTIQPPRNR

[5] = IFNγ stimulation (100 ng/mL) for 12 hours

CN1CCc2c(c3ccccc3n2Cc2ccc(C(=O)NO)cc2)C1 [Tubastatin A]
Arg1 in M2 polarized macrophages [1]: downregulated | Cd80 expression in M1-like macrophages [1]: upregulated | effects on THP1-derived macrophage M2-like polarization (THP1-derived macrophages): verified | expression of pro-phagocytic signals [2]: corroborated | IFNγ-driven Cd47 upregulation at the transcriptional level (SM1 melanoma cells; IFNγ for 12 hours): repressed these effects | IFNγ-driven Cd47 upregulation at the transcriptional level (B16 melanoma cells; IFNγ for 12 hours): repressed these effects

O=C(CCCCCCC(=O)Nc1ccccc1)NO [SAHA, suberoylanilide hydroxamic acid]
trastuzumab-mediated phagocytosis [3]: enhance trastuzumab-mediated phagocytosis

anti-mouse CD47 (clone miap301, 127502, Biolegend) (antibody)
lowest antibody concentration that provided maximum surface CD47 blockade and epitope saturation [4]: 25 µg/mL

O=C(CCCCCCC(=O)Nc1ccc([C@H]2O[C@@H](CSc3nc(-c4ccccc4)c(-c4ccccc4)o3)C[C@@H](c3ccc(CO)cc3)O2)cc1)NO [Tubacin]
Arg1 in M2 polarized macrophages [1]: downregulated | Cd80 expression in M1-like macrophages [1]: upregulated | effects on THP1-derived macrophage M2-like polarization (THP1-derived macrophages): verified | expression of pro-phagocytic signals [2]: corroborated

B1: IFNγ: interferon gamma, cytokine used to stimulate Cd47 upregulation (protein, UniProt P01580 23-155, looked up)
Interferon gamma: HGTVIESLESLNNYFNSSGIDVEEKSLFLDIWRNWQKDGDMKILQSQIISFYLRLFEVLKDNQAISNNISVIESHLITTFFSNSKAKKDAFMSIAKFEVNNPQVQRQAFNELIRVVHQLLPESSLRKRKRSRC
Cd47 upregulation (SM1 melanoma cells; [5]): 1.6 fold | Cd47 upregulation (B16 melanoma cells; [5]): 10 fold
